Data from the NIST ThermoML archive (doi:10.1016/j.jct.2017.07.014).
Numbers after ± are expanded uncertainties.

Legend:
[1] = refractive index (other wavelength) (dimensionless); conditions: 108 kPa, Liquid, Wavelength=632.8 nm, minimum deviation method
[2] = refractive index (other wavelength) (dimensionless); xn = mol fraction of the nth substance listed; conditions: 108 kPa, Liquid, Wavelength=632.8 nm, minimum deviation method, x2 = 0

CCCCn1cc[n+](C)c1.F[P-](F)(F)(F)(F)F [1-butyl-3-methylimidazolium hexafluorophosphate]
[1]
Conditions | refractive index
315.21 K | 1.4038 ± 0.0003
317.26 K | 1.4032 ± 0.0003
319.23 K | 1.4027 ± 0.0003
321.47 K | 1.4021 ± 0.0003
323.47 K | 1.4016 ± 0.0003
325.4 K | 1.4011 ± 0.0003

CCO [ethanol]
[1]
Conditions | refractive index
315.24 K | 1.3509 ± 0.0002
317.21 K | 1.3501 ± 0.0002
319.26 K | 1.3492 ± 0.0002
321.31 K | 1.3483 ± 0.0002
323.3 K | 1.3474 ± 0.0002
325.39 K | 1.3465 ± 0.0002

CCO [ethanol] + CCCCn1cc[n+](C)c1.F[P-](F)(F)(F)(F)F
[2]
Conditions | refractive index
315.24 K | 1.3509 ± 0.0002
317.21 K | 1.3501 ± 0.0002
319.26 K | 1.3492 ± 0.0002
321.31 K | 1.3483 ± 0.0002
323.3 K | 1.3474 ± 0.0002
325.39 K | 1.3465 ± 0.0002
